# Where a SMILES comes first, the peptide text is derived from it. [ ]: non-standard residue; d: D form. The star is where a group is joined. Sta = CC(C)C[C@H](N)[C@@H](O)CC(=O)O; Isovaleryl = CC(C)CC(=O)*
# Biological target: Plasmepsin V (Plasmodium falciparum, UniProt Q8I6Z5)
# Experiment: fluorogenic HRPII peptide cleavage assay, recombinant refolded enzyme, pH […]
# Type: biochemical
# Plasmepsin V, sequence (Q8I6Z5 81-521): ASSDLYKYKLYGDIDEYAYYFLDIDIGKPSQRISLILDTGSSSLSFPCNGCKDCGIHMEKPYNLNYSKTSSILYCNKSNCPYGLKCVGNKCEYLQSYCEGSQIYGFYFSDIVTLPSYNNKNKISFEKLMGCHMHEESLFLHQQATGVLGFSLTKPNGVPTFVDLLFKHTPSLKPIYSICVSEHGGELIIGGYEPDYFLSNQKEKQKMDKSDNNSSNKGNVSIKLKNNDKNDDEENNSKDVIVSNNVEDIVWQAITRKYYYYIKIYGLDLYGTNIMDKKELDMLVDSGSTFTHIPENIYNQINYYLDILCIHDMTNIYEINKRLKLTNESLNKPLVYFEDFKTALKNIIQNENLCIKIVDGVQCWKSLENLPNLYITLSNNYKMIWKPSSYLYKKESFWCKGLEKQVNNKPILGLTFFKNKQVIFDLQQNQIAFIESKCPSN
row,Compound,IC50 [µM]
1,KNI-10742,108
2,CC(C)CC(=O)N[C@H](C(=O)N[C@H](C(=O)N[C@@H](CC(C)C)[C@@H](O)CC(=O)N[C@@H](C)C(=O)N[C@@H](CC(C)C)[C@@H](O)CC(=O)O)C(C)C)C(C)C [pepstatin A] (Isovaleryl-VV[Sta]A[Sta]-OH),22
3,KNI-10743,44

# From publication PMC6310130 (Molecular and biochemical parasitology, 2014)
